What was measured:
[1] = test system: powdery mildew fungus (Blumeria graminis); assay: Test Example 1: controlling effect by seed dressing against wheat powdery mildew; assay type: in vivo; details: 0.15% active ingredient based on weight of dry seeds, inoculated 25 days after sowing, investigated 7 days after inoculation
Description: (§1) Seeds of wheat (cultivar: chihoku komugi) and a wettable powder prepared according to Formulation Example were placed in a vinyl bag, followed by adding thereto a small volume of water, and they were mixed to conduct seed dressing. On the day after this treatment, the seeds sowed in a plastic pot of 10 cm diameter, and cultivated in a greenhouse. Twenty five days after sowing, the seedlings thus obtained were inoculated with powdery mildew fungus (Blumeria graminis) by sprinkling. Seven days after inoculation, the seedlings were investigated and infection index was estimated according to the criterion shown below, after which the control efficacy (%) was calculated. In this occasion, infection index on the untreated plot was 8.0. As comparative examples, the following compounds described in JP-A-2001-10909 were evaluated. • I: 3′-chloro-4,4′-dimethyl-1,2,3-thiadiazole-5-carboxanilide • II: benzyl 4-isopropyl-1,2,3-thiadiazole-5-carboxylate • III: methyl 4-cyclopropyl-1,2,3-thiadiazole-5-carboxylate • IV: 4-cyclopropyl-1,2,3-thiadiazole-5-carboxylic acid Infection Index • 0: No infection. • 0.5: Lesion area percentage: less than 10% • 1: Lesion area percentage; 10 to less than 20% • 2: Lesion area percentage; 20 to less than 30% • 3: Lesion area percentage; 30 to less than 40% • 4: Lesion area percentage; 40 to less than 50% • 5: Lesion area percentage; 50 to less than 60% • 6: Lesion area percentage; 60 to less than 70% • 7: Lesion area percentage; 70 to less than 80% • 8: Lesion area percentage; 80 to less than 90% • 9: Lesion area percentage; 90 to less than 100% • 10: Lesion area percentage; 100% Control efficacy (%)={1-(infection index on treated plot/infection index on untreated plot)}×100 Rank of Control Efficacy • A: Control efficacy 100-90% • B: Control efficacy 89-80% • C: Control efficacy 79-60% • D: Control efficacy 59-0%

[2] = test system: wheat (cultivar: Chihoku Komugi); assay: Test Example 3: phytotoxicity for wheat by treatment of seeds (safety test on plant); assay type: in vivo; details: wheat seed dressing, 0.15% active ingredient based on weight of dry seeds; 7 and 14 days after sowing
Method: Seeds of wheat (cultivar: Chihoku Komugi) and a wettable powder prepared according to Formulation Example were placed in a vinyl bag, followed by adding thereto a small volume of water, and they were mixed to conduct seed dressing. On the day after this treatment, the seeds sowed in a plastic pot of 10 cm diameter, and cultivated in a greenhouse. Seven days and fourteen days after sowing, phytotoxicity for germination of the seeds and growth at the early stage were evaluated.

[3] = test system: powdery mildew fungus (Blumeria graminis); assay: Test Example 2: controlling effect by seed dressing against wheat powdery mildew, long-lasting effect; assay type: in vivo; details: 0.15% active ingredient based on weight of dry seeds, inoculated 50 days after sowing, investigated 7 days after inoculation
Description: as §1
Seeds of wheat (cultivar: Chihoku Komugi) and a wettable powder prepared according to Formulation Example were placed in a vinyl bag, followed by adding thereto a small volume of water, and they were mixed to conduct seed dressing. On the day after this treatment, the seeds sowed in a plastic pot of 10 cm diameter, and cultivated in a greenhouse. Fifty days after sowing, the seedlings thus obtained were inoculated with powdery mildew fungus (Blumeria graminis) by sprinkling. Seven days after inoculation, the seedlings were investigated and infection index was estimated according to the criterion shown below, after which the control efficacy (%) was calculated. In this occasion, infection index on the untreated plot was 8.0. As comparative examples, the above-described compounds I, II, III and IV were evaluated.

Row | melting point [°C] | Compound | Rank of control efficacy [1] | phytotoxicity for germination of the seeds and growth at the early stage [2] | Rank of control efficacy [3]
1 | – | O=C(OCc1ccc(Cl)cc1)c1snnc1C1CC1 [1-12] | B or more | absolutely no phytotoxicity | –
2 | – | O=C(O)c1ccccc1NC(=O)c1snnc1C1CC1 [1-98, 2-(4-cyclopropyl-1,2,3-thiadiazol-5-ylcarbonylamino)benzoic acid] | B or more | absolutely no phytotoxicity | –
3 | 124 | N#Cc1ccccc1NC(=O)c1snnc1C1CC1 [1-100, 2′-cyano-4-cyclopropyl-1,2,3-thiadiazole-5-carboxanilide] | – | – | –
4 | – | CC(OC(=O)c1snnc1C1CC1)c1ccc(Cl)cc1 (stereo not shown) [1-44] | B or more | absolutely no phytotoxicity | –
5 | – | COc1ccc(NC(=O)c2snnc2C2CC2)c(OC)c1 [1-96] | B or more | absolutely no phytotoxicity | –
6 | 150 to 153 | Cc1ccc(NC(=O)c2snnc2C2CC2)cc1Cl [1-95, 3′-chloro-4-cyclopropyl-4′-methyl-1,2,3-thiadiazole-5-carboxanilide] | B or more | absolutely no phytotoxicity | –
7 | – | O=C(NCc1ccccc1)c1snnc1C1CC1 [1-53] | B or more | absolutely no phytotoxicity | –
8 | – | O=C(NS(=O)(=O)c1ccccc1)c1snnc1C1CC1 [1-121] | B or more | absolutely no phytotoxicity | –
9 | 47 | COC(=O)c1snnc1C1CC1 [III, methyl 4-cyclopropyl-1,2,3-thiadiazole-5-carboxylate] | – | – | –
10 | – | CCCCCCCCOC(=O)c1snnc1C1CC1 [1-8] | B or more | absolutely no phytotoxicity | –
11 | – | COC(=O)c1ccc(COC(=O)c2snnc2C2CC2)cc1 [1-24] | B or more | absolutely no phytotoxicity | –
12 | – | O=C(OCc1cccc(Cl)c1)c1snnc1C1CC1 [1-11] | B or more | absolutely no phytotoxicity | –
13 | 158 to 159 | O=C(O)c1snnc1C1CC1 [Comparative compound IV, 4-cyclopropyl-1,2,3-thiadiazole-5-carboxylic acid] | – | delay germination and suppressed growth | B (Control efficacy 89-80%)
14 | – | O=C(OCc1cc(Cl)cc(Cl)c1)c1snnc1C1CC1 [1-30] | B or more | absolutely no phytotoxicity | –
15 | – | CC(C)Cc1csc(NC(=O)c2snnc2C2CC2)n1 [1-110] | B or more | absolutely no phytotoxicity | –
16 | – | COc1ccc(CNC(=O)c2snnc2C2CC2)cc1OC [1-166] | B or more | absolutely no phytotoxicity | –
17 | – | CC(C)(C)c1ccc(CNC(=O)c2snnc2C2CC2)cc1 [1-63] | B or more | absolutely no phytotoxicity | –

— US7786040B2, “4-cyclopropyl-1,2,3,-thiadiazole compound, agrohorticultural plant disease controlling agent and method of using the same” (Nihon Nohyaku Co., Ltd., priority 2005, dated 2010)
